# Data published in patent US9873699B1, “Anti-cancer agents” (KING SAUD UNIVERSITY, priority 2017, dated 2018).
# Tested on: FaDu hypopharyngeal tumor cells
# Test: Cytotoxicity assay (MTT)
# Type: cell-based
# Settings: 48 h
# Experimental: The synthesized series of compounds 4a-m stock solution were prepared by dissolved in DMSO (Sigma-Aldrich, St. Louis, Mo., USA) or dH2O. The stock solutions were diluted with cell culture medium and used as a working solution. Different concentration of working solution was exposed to 5 to 7×10^3 cells seeded 96 well plates after 24 h incubation. DMSO/dH2O was used as the solvent control. Nuclear morphological changes were monitored and photographed following treatment of synthesized compounds for 48 h using inverted microscope (Carl Zeiss, Jena, Germany). After incubation, plates were centrifuged and washed with cell culture medium. Subsequently, 20 μL of MTT solution [5 mg/mL in phosphate-buffered saline (PBS)] was added to each well, and the plates were protected from light and kept in CO2 incubator at 37° C. for 4 h. The purple color formazan product was formed and dissolved in 100 μL of DMSO. The absorbance was monitored at 570 nm (measurement) and 630 nm (reference) using a 96 well plate reader (Bio-Rad, Hercules, Calif., USA). Data were collected for four replicates each and used to calculate the median effect dose or concentration, i.e., IC50 using the Calcusyn software.
# The cytotoxicity of synthesized compounds 4(a-m) on FaDu hypopharyngeal tumor cells was assessed for 48 h, in comparison with the commercial anti-cancer drug bleomycin under identical conditions (FIGS. 6&7). […] The percentage of apoptotic cells is indicated by the histograms and the data shown are the means from triplicates. Vertical bars represent standard error of the mean.
row,Compound,cytotoxicity against cancer cells (in words)
1,"Cc1cccc(C=C2CN(C=Cc3ccccc3)CC3(C2=O)C(c2cccc(C)c2)C(Cc2ccccc2)NC32C(=O)Nc3ccccc32)c1 (stereo not drawn) [Compound 4h, 5′-benzyl-4′-(3-tolyl)-5-spiro[3,2′]oxindolopyrrolidino-4′-(3-methylphenyl)-1″-styryl-5-benzylidene-spiro[3′.3″]piperidi-4″-one]",good cytotoxicity
2,"5′-benzyl-5-spiro[3,2′]oxindolopyrrolidino-4′-(methylphenyl)-1″-styryl-5-benzylidene-spiro[3′.3″]piperidi-4″-one [Compound 4a]",excellent cytotoxic property
3,"Cc1ccccc1C=C1CN(C=Cc2ccccc2)CC2(C1=O)C(c1ccccc1C)C(Cc1ccccc1)NC21C(=O)Nc2ccccc21 (stereo not drawn) [Compound 4g, 5′-benzyl-4′-(2-tolyl)-5-spiro[3,2′]oxindolopyrrolidino-4′-(2-methylphenyl)-1″-styryl-5-benzylidene-spiro[3′.3″]piperidi-4″-one]",excellent cytotoxic property
4,"5′-benzyl-4′-(2,4-dichloropheynyl)-5-spiro[3,2′]oxindolopyrrolidino-4′-(2,4-dichlorophenyl-1″-styryl-5-benzylidene-spiro[3′.3″]piperidi-4″-one [Compound 4e]",good cytotoxicity
5,O=C1Nc2ccccc2C12NC(Cc1ccccc1)C(c1ccccc1Cl)C21CN(C=Cc2ccccc2)CC(=Cc2ccccc2Cl)C1=O (stereo not drawn) [Compound 4d],good cytotoxicity
6,"5′-benzyl-4′-(4-bromopheynyl)-5-spiro[3,2′]oxindolopyrrolidino-4′-(4-bromophenyl-1″-styryl-5-benzylidene-spiro[3′.3″]piperidi-4″-one [Compound 4c]",good cytotoxicity
